molecular target: T1, Human complement C1s enzyme (Homo sapiens, UniProt P09871); experiment: Human C1s enzyme assay; format: biochemical; details: human complement C1s enzyme 1.16 nM, substrate Z-L-Lys-SBzl 100 μM, 5 min preincubation; read-out: IC50 (Stars), C1s Inhibiting Activity
T1 sequence (P09871 438-688 limits assumed): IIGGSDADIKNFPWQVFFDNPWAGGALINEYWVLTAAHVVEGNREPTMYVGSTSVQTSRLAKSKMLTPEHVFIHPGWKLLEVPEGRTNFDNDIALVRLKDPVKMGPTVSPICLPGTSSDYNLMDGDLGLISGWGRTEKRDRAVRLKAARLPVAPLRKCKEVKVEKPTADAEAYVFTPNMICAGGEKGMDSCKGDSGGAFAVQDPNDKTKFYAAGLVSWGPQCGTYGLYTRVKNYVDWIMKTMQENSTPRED
T1 sequence (P09871 16-437 partner limits assumed): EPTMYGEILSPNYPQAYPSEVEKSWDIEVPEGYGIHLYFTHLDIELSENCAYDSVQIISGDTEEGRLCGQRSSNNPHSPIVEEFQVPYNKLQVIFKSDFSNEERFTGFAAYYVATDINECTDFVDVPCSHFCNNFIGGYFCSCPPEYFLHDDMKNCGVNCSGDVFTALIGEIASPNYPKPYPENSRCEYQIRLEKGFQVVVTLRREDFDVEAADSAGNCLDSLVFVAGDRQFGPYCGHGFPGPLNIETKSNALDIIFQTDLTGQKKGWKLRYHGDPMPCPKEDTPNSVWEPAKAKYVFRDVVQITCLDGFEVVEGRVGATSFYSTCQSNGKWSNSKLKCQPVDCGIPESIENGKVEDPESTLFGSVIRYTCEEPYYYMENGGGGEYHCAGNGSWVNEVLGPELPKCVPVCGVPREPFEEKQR
Method in brief: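 IC50 from nonlinear regression of reaction rates versus compound concentration, with rates taken from A405 recorded at 30 s intervals over 30 min after adding 100 μM Z-L-Lys-SBzl plus 100 μM DTNB. Enzyme was human C1s purified from serum, 1.16 nM, given 5 min compound preincubation at room temperature, pH 7.5 Tris/1 M NaCl.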

| IC50 | Compound |
| --- | --- |
| < 0.1 µM | O=C(NCC(=O)N1C[C@H](OC(F)F)C[C@H]1C(=O)NCc1cc2cnccc2[nH]1)c1ccc2oc3ccccc3c2c1 [Compound 218, (2S,4R)-N-((1H-pyrrolo[3,2-c]pyridin-2-yl)methyl)-1-((dibenzo[b,d]furan-2-carbonyl)glycyl)-4-(difluoromethoxy)pyrrolidine-2-carboxamide] |
| < 0.1 µM | C[C@@H](NC(=O)[C@@H]1C[C@@H](OC(F)F)CN1C(=O)CNC(=O)c1ccc2oc3ccccc3c2c1)c1cc2cnccc2[nH]1 [Compound 220, (2S,4R)-N-((R)-1-(1H-pyrrolo[3,2-c]pyridin-2-yl)ethyl)-1-((dibenzo[b,d]furan-2-carbonyl)glycyl)-4-(difluoromethoxy)pyrrolidine-2-carboxamide] |
| > 1 µM | O=C(NCC(=O)N1C[C@H](OC(F)F)C[C@H]1C(=O)NCc1ccc2ncoc2c1)c1ccc2c(c1)Oc1ccccc1S2 [Compound 221, (2S,4R)-N-(benzo[d]oxazol-6-ylmethyl)-4-(difluoromethoxy)-1-((phenoxathiine-3-carbonyl)glycyl)pyrrolidine-2-carboxamide] |
| > 1 µM | O=C(NCC(=O)N1C[C@H](OC(F)F)C[C@H]1C(=O)NCc1ccn2cnnc2c1)c1ccc2c(c1)Oc1ccccc1S2 [Compound 224, (2S,4R)-N-([1,2,4]triazolo[4,3-a]pyridin-7-ylmethyl)-4-(difluoromethoxy)-1-((phenoxathiine-3-carbonyl)glycyl)pyrrolidine-2-carboxamide] |

The next lines start with the compound.

| Compound | IC50 |
| --- | --- |
| C[C@@H](NC(=O)[C@@H]1C[C@](F)(Cn2ccnn2)CN1C(=O)CNC(=O)c1ccc2c(c1)Oc1ccccc1S2)c1cc2cnccc2[nH]1 [Compound 216, (2S,4R)-4-((1H-1,2,3-triazol-1-yl)methyl)-N-((R)-1-(1H-pyrrolo[3,2-c]pyridin-2-yl)ethyl)-4-fluoro-1-((phenoxathiine-3-carbonyl)glycyl)pyrrolidine-2-carboxamide] | < 0.1 µM |
| C[C@@H](NC(=O)[C@@H]1C[C@](F)(Cn2ccnc2)CN1C(=O)CNC(=O)c1ccc2c(c1)Oc1ccccc1S2)c1cc2cnccc2[nH]1 [Compound 217, (2S,4S)-4-((1H-imidazol-1-yl)methyl)-N-((R)-1-(1H-pyrrolo[3,2-c]pyridin-2-yl)ethyl)-4-fluoro-1-((phenoxathiine-3-carbonyl)glycyl)pyrrolidine-2-carboxamide] | < 0.1 µM |
| O=C(NCC(=O)N1C[C@H](OC(F)F)C[C@H]1C(=O)NCc1ccc2scnc2c1)c1ccc2c(c1)Oc1ccccc1S2 [Compound 222, (2S,4R)-N-(benzo[d]thiazol-5-ylmethyl)-4-(difluoromethoxy)-1-((phenoxathiine-3-carbonyl)glycyl)pyrrolidine-2-carboxamide] | > 1 µM |
| O=C(NCC(=O)N1C[C@H](OC(F)F)C[C@H]1C(=O)NCc1ccc2c(c1)CCNC2)c1ccc2c(c1)Oc1ccccc1S2 [Compound 223, (2S,4R)-4-(difluoromethoxy)-1-((phenoxathiine-3-carbonyl)glycyl)-N-((1,2,3,4-tetrahydroisoquinolin-6-yl)methyl)pyrrolidine-2-carboxamide] | 0.1 to 1 µM |
| O=C(NCC(=O)N1C[C@H](OC(F)F)C[C@H]1C(=O)NCc1ccc2nncn2c1)c1ccc2c(c1)Oc1ccccc1S2 [Compound 225, (2S,4R)-N-([1,2,4]triazolo[4,3-a]pyridin-6-ylmethyl)-4-(difluoromethoxy)-1-((phenoxathiine-3-carbonyl)glycyl)pyrrolidine-2-carboxamide] | > 1 µM |
| O=C(NCC(=O)N1C[C@H](OC(F)F)C[C@H]1C(=O)NCc1ccc2c(c1)CNCC2)c1ccc2c(c1)Oc1ccccc1S2 [Compound 226, (2S,4R)-4-(difluoromethoxy)-1-((phenoxathiine-3-carbonyl)glycyl)-N-((1,2,3,4-tetrahydroisoquinolin-7-yl)methyl)pyrrolidine-2-carboxamide] | > 1 µM |

Source: US20260062443A1 (ALEXION PHARMACEUTICALS, INC., priority 2022, published 2026)
